Laboratory results taken from US9403800B2, “Compounds for inhibition of cancer cell proliferation” (ChemRegen, Inc., priority 2012, dated 2016).

How the values were obtained:
HEK293 cells = experiment: apoptosis in HEK293 cells; format: cell-based; conditions: upon treatment
xenopus embryos = experiment: xenopus embryo development and marker gene expression; format: in vivo
Description: Previous studies highlighted the importance of Wnt pathway signaling in promoting cellular differentiation. Accordingly, the physiological relevance of the Wnt inhibitory functions of 1 was shown by the effect of this compound on the morphology of xenopus embryos during embryonic development. […] Vent2 and Otx2 are regulated by TCF3 during anteroposterior axis specification in xenopus embryos and HIPK2 antagonizes them through phosphorylation of TCF3. These phenotypes are very similar to embryos with TCF3-knockout and contrast to those of HIPK2-knockout. Together, the observations indicate that compound 1 activates HIPK2 to remove TCF proteins from their target DNA via phosphorylation.

NF-B signaling pathway = NF-B signaling pathway transcriptional activity (selectivity); format: cell-based
[1] = tested on: canonical Wnt target genes, Cyclin D1 (CCND1), Axin2 (AXIN2), and c-Myc (c-MYC); experiment: mRNA levels of canonical Wnt target genes in HEK293T and SW480 cells; format: cell-based; conditions: HEK293T and SW480 colorectal cells
[2] = tested on: HCT-116 xenograft colon tumors; experiment: HCT-116 xenograft colon tumors in nu/nu mice; format: in vivo
Method: Based on the inhibition of cancer cell proliferation by the disclosed compounds the disclosed compounds likely will inhibit cancer cell migration. […] Following establishment of HCT-116 tumors, daily doses of either Compound 15 or vehicle were administered by i.p. injection at 20 mg/kg for 28 days. […] The weight of the excised HCT-116 tumors was 77% lower for the Compound 15-treated mice relative to the vehicle control on Day 28 of the experiment. […] Following establishment of PC-3 tumors, daily doses of either Compounds 1, 15 or vehicle were administered by i.p. injection at 30 mg/kg for 19 days. […] The weight of the excised PC-3 tumors was 66% for compound 15-treated mice compared to vehicle-treated controls on Day 19 of the experiment.

[3] = xenopus embryos incubated with compound

SMILES	apoptotic HEK293 cells (HEK293 cells)	posterior development of xenopus embryos (xenopus embryos; treatment during the mid-blastula transition)	anterior and ventral expression domain of Vent2 (xenopus embryos; [3])	anterior marker gene Otx2 expression (xenopus embryos; [3])	transcriptional activity of the NF-B signaling pathway (NF-B signaling pathway)	mRNA levels of canonical Wnt target genes CCND1, AXIN2, c-MYC [1]	weight of the excised HCT-116 tumors, lower relative to the vehicle control ([2]; i.p. 20 mg/kg daily, Day 28) [%]	growth of HCT-116 colon tumors ([2]; nu/nu mice, i.p. 20 mg/kg daily for 28 days)
O=C1CCCN1c1ccc(S(=O)(=O)N2CCCc3ccccc32)cc1 [Compound 1, 1-(4-(3,4-dihydroquinolin-1(2H)-ylsulfonyl)phenyl)pyrrolidin-2-one]	increase in apoptotic HEK293 cells	inhibited posterior development	expanded	decreased anterior marker gene Otx2	did not alter the transcriptional activity	decrease in mRNA levels	–	–
CN1CCN(S(=O)(=O)c2ccc(N3CCCC3=O)cc2)c2ccccc21 [Compound 15, 1-(4-(4-methyl-3,4-dihydroquinoxalin-1(2H)-ylsulfonyl)phenyl)pyrrolidin-2-one]	–	–	–	–	–	–	77	decreased the growth of HCT-116 colon tumors
